Experimental data taken from US20260137706A1, “METHODS OF TREATING INFLAMMATORY DISEASES” (INTERLINE THERAPEUTICS, INC., priority 2023, published 2026).

Key:
[1] = biological target: T1, GST-RIPK2 fusion protein (human RIPK2, amino acids 1-310) (Homo sapiens, UniProt O43353); test: RIPK2 binding competition assay (TR-FRET, Tracer 199 displacement); conditions: 10 nM Tracer 199, 1 nM GST-RIPK2, read-out: RIPK2 IC50
T1 construct: made in house; host or cells: baculovirus infected Sf9 cells
Procedure, shortened: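 IC50 derived from the TR-FRET emission ratio (665/620 nm, 337 nm excitation), normalized with no-inhibitor and no-enzyme controls. Incubation 45 min at 22 °C, pH 7.5 Tris buffer, with final 10 nM tracer, 1 nM Sf9-expressed GST-RIPK2 fragment (aa 1-310) and 0.5 nM Tb-labelled anti-GST.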

[2] = biological target: T2, binding of His-XIAP(BIR2)-avi fusion protein to GST-RIPK2 fusion protein (RIPK2/XIAP) (Homo sapiens, UniProt O43353); test: RIPK2-XIAP binding competition PPI assay (TR-FRET); conditions: RIPK2/XIAP binding competition PPI assay; for Emax: Amax, read-out: PPI Amax bin; for IC50: read-out: PPI IC50 bin
T2 construct: made in house; host or cells: baculovirus infected Sf9 cells
Procedure, shortened: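 Compounds (in DMSO, 100-fold stock) incubated 120 min at 23 °C with 1 nM GST-RIPK2 (aa 1-310) and 25 nM His-XIAP(BIR2 aa 152-231)-avi, plus anti-His-XL665 and anti-GST-Tb, in pH 7.5 Tris buffer. Read-out: 665/520 nm emission ratio. Normalized to no-inhibitor (0%) and 50 nM GSK583 (−100%); Amax binned A–D.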

[3] = tested on: NF-κB pathway (SEAP) in THP1-Dual cells; test: THP-1 Dual cell SEAP assay (L18-MDP stimulated); format: cell-based; conditions: Homo sapiens, THP1-Dual, read-out: NF-κB THP1 IC50 bin
Procedure, shortened: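 IC50 values derive from non-linear regression of % inhibition, calculated against DMSO/L18-MDP-treated wells after media-only subtraction. NF-κB SEAP activity was read at OD 620-655 nm (QUANTI-Blue, 2 h, 37 °C) from supernatants of THP1-Dual cells. Cells had been compound-treated 30 min before overnight (20-24 h) stimulation with 10 ng/mL final L18-MDP.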

T1 sequence (O43353 1-310): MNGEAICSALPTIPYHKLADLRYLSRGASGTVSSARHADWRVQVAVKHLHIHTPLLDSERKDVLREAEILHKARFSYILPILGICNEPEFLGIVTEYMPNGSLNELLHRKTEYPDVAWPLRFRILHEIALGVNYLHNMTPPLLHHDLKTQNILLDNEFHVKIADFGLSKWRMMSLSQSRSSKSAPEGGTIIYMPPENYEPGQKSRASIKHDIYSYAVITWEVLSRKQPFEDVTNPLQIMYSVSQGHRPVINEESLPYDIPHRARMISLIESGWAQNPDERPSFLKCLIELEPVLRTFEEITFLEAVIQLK
T2 sequence (O43353 1-310 limits assumed): as the sequence (O43353 1-310) above

## CC(C)(N)COc1cc2ncc(-c3cc(Cl)c(N)nc3F)n2cc1S(=O)(=O)C(C)(C)C [Example 241, 5-(7-(2-amino-2-methylpropoxy)-6-(tert-butylsulfonyl)imidazo [1,2-a]pyridin-3-yl)-3-chloro-6-fluoropyridin-2-amine]
[1]
  IC50: 2.5 to 20 nM
[2]
  Emax: > 80%
  IC50: 2.5 to 20 nM
[3]
  IC50: 250 to 1000 nM

## CCS(=O)(=O)c1cn2c(-c3cc(F)c(OC)c(NS(=O)(=O)c4cnn(C)c4)c3)cnc2cc1OC [Example 242, N-(5-(6-(ethylsulfonyl)-7-methoxyimidazo[1,2-a]pyridin-3-yl)-3-fluoro-2-methoxyphenyl)-1-methyl-1H-pyrazole-4-sulfonamide]
[1]
  IC50: < 1 nM
[2]
  Emax: > 80%
  IC50: < 1 nM
[3]
  IC50: 50 to 250 nM

## CC(C)(C)S(=O)(=O)c1cn2c(-c3cc(Cl)c(N)nc3F)cnc2cc1OCC(F)(F)CN [Example 243, 5-(7-(3-amino-2,2-difluoropropoxy)-6-(tert-butylsulfonyl)imidazo [1,2-a]pyridin-3-yl)-3-chloro-6-fluoropyridin-2-amine]
[1]
  IC50: 1 to 2.5 nM
[2]
  Emax: > 80%
  IC50: 1 to 2.5 nM
[3]
  IC50: 50 to 250 nM

## COc1cc2ncc(-c3cc(NS(=O)(=O)c4cnn(C)c4)c(OC)c(OC)c3)n2cc1S(=O)(=O)C(C)(C)C [Example 244, N-(5-(6-(tert-butylsulfonyl)-7-methoxyimidazo[1,2-a]pyridin-3-yl)-2,3-dimethoxyphenyl)-1-methyl-1H-pyrazole-4-sulfonamide]
[1]
  IC50: 1 to 2.5 nM
[2]
  Emax: > 80%
  IC50: < 1 nM
[3]
  IC50: < 50 nM

## COc1cc(-c2cnc3cc(OCCO)c(S(=O)(=O)C(C)(C)C)cn23)cc(NS(=O)(=O)c2cnn(C)c2)c1OC [Example 245, N-(5-(6-(tert-butylsulfonyl)-7-(2-hydroxyethoxy)imidazo [1,2-a]pyridin-3-yl)-2,3-dimethoxyphenyl)-1-methyl-1H-pyrazole-4-sulfonamide]
[1]
  IC50: 1 to 2.5 nM
[2]
  Emax: > 80%
  IC50: < 1 nM
[3]
  IC50: < 50 nM

## CC(C)(C)S(=O)(=O)c1cc2c(-c3cc(F)c(N)nc3F)cnn2cc1OCC(O)CO (stereo not shown) [Example 246, 3-((3-(6-amino-2,5-difluoropyridin-3-yl)-5-(tert-butylsulfonyl)pyrazolo [1,5-a]pyridin-6-yl)oxy)propane-1,2-diol]
[1]
  IC50: 1 to 2.5 nM
[2]
  Emax: > 80%
  IC50: 1 to 2.5 nM
[3]
  IC50: 50 to 250 nM

## CC(C)(C)S(=O)(=O)c1cc2c(-c3cc(Cl)c(N)nc3F)cnn2cc1OCC(O)CO (stereo not shown) [Example 247, 3-((3-(6-amino-5-chloro-2-fluoropyridin-3-yl)-5-(tert-butylsulfonyl)pyrazolo [1,5-a]pyridin-6-yl)oxy)propane-1,2-diol]
[1]
  IC50: 1 to 2.5 nM
[2]
  Emax: > 80%
  IC50: 1 to 2.5 nM
[3]
  IC50: 50 to 250 nM

## COc1cc2ncc(-c3cc(F)c(OC)c(NS(=O)(=O)c4cnc(O)nc4)c3)n2cc1S(=O)(=O)C(C)(C)C [Example 248, N-(5-(6-(tert-butylsulfonyl)-7-methoxyimidazo[1,2-a]pyridin-3-yl)-3-fluoro-2-methoxyphenyl)-2-hydroxypyrimidine-5-sulfonamide]
[1]
  IC50: 2.5 to 20 nM
[2]
  Emax: 55 to 80%
  IC50: 2.5 to 20 nM
[3]
  IC50: > 1000 nM

## CC(C)(C)S(=O)(=O)c1cn2c(-c3ccc(N)nc3F)cnc2cc1OCCO [Example 249, 2-((3-(6-amino-2-fluoropyridin-3-yl)-6-(tert-butylsulfonyl)imidazo [1,2-a]pyridin-7-yl)oxy)ethan-1-ol]
[1]
  IC50: > 20 nM
[2]
  Emax: > 80%
  IC50: > 20 nM
[3]
  IC50: > 1000 nM

## C[C@@H](O)COc1cc2ncc(-c3ccc(N)nc3F)n2cc1S(=O)(=O)C(C)(C)C [Example 250, (R)-1-((3-(6-amino-2-fluoropyridin-3-yl)-6-(tert-butylsulfonyl)imidazo [1,2-a]pyridin-7-yl)oxy)propan-2-ol]
[1]
  IC50: 2.5 to 20 nM
[2]
  Emax: > 80%
  IC50: > 20 nM
[3]
  IC50: > 1000 nM
